Columns and labels:
A101D (Melanoma) = assay: combination Emax (second highest fraction inhibited in the dose matrix, 72 h); higher = more inhibition; extreme values may be limits of the assay
Summary of the method: (§1)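 Bliss excess equals the observed combination effect minus the expected value EA + EB − EA·EB, where EA and EB are the effects of each agent alone. Combination Emax is the second-highest inhibition within the matrix. Inhibition was scaled from CellTiter-Glo 2.0 luminescence, with 0 set by vehicle wells and 1 by blank wells, after 72 hours of two-drug dosing of cells plated in 1536-well plates.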

[1] = system: JVM-2 (B-Cell Non-Hodgkin's Lymphoma); assay: as above
Summary of the method: as §1

[2] = system: CA46 (Burkitt's Lymphoma); assay: as above
Summary of the method: as §1

[3] = system: DMS-53 (Small Cell Lung Carcinoma); assay: as above
Summary of the method: as §1

[4] = system: ESO26 (Esophageal Adenocarcinoma); assay: as above
Summary of the method: as §1

[5] = system: A253 (Head and Neck Carcinoma); assay: as above
Summary of the method: as §1

[6] = system: Jurkat (T-Lymphoblastic Leukemia); assay: as above
Summary of the method: as §1

[7] = system: CAL-27 (Oral Cavity Carcinoma); assay: as above
Summary of the method: as §1

[8] = system: G-402 (Other Solid Carcinomas); assay: as above
Summary of the method: as §1

[9] = system: KYSE-140 (Esophageal Squamous Cell Carcinoma); assay: as above
Summary of the method: as §1

COLO-792 (Melanoma) = assay: as above
Summary of the method: as §1

NB13 (Neuroblastoma) = assay: as above
Summary of the method: as §1

[10] = system: NCI-H1703 (Squamous Cell Lung Carcinoma); assay: Bliss excess, mean over the matrix (fraction); higher = more synergy
Summary of the method: as §1

[11] = system: NCI-H2087 (Lung Adenocarcinoma); assay: as above
Summary of the method: as §1

[12] = system: A2780 (Ovarian Carcinoma); assay: as above
Summary of the method: as §1

EW-7 (Ewing's Sarcoma) = assay: as above
Summary of the method: as §1

IM-9 (Non-Cancerous) = assay: as above
Summary of the method: as §1

769-P (Kidney Carcinoma) = assay: as above
Summary of the method: as §1

[13] = system: CGTH-W-1 (Thyroid Gland Carcinoma); assay: as above
Summary of the method: as §1

[14] = system: UACC-812 (Breast Carcinoma); assay: combination Emax (second highest fraction inhibited in the dose matrix, 72 h); higher = more inhibition; extreme values may be limits of the assay
Summary of the method: as §1

Compound	combination Emax (A101D (Melanoma))	combination Emax [1]	combination Emax [2]	combination Emax [3]	combination Emax [4]	combination Emax [5]	combination Emax [6]	combination Emax [7]	combination Emax [8]	combination Emax [9]	combination Emax (COLO-792 (Melanoma))	combination Emax (NB13 (Neuroblastoma))	Bliss excess [10]	Bliss excess [11]	Bliss excess [12]	Bliss excess (EW-7 (Ewing's Sarcoma))	Bliss excess (IM-9 (Non-Cancerous))	Bliss excess (769-P (Kidney Carcinoma))	Bliss excess [13]	combination Emax [14]
C[C@@H](c1ccc2nccn2c1)n1nnc2ncc(-c3cnn(C)c3)nc21 [Savolitinib] + CN(CC[C@H](CSC1=CC=CC=C1)NC2=C(C=C(C=C2)S(=O)(=O)NC(=O)C3=CC=C(C=C3)N4CCC(CC4)[C@H](C5=CC=CC=C5C6=CC=C(C=C6)Cl)O)S(=O)(=O)C(F)(F)F)CCO [AZD4320] (first compound max 1 µM, 7x7, partner max 1 µM)	0.409	0.417	0.0638	0.994	0.127	0.22	0.556	0.17	0.187	0.236	0.798	–	–	–	–	–	–	–	–	–
CN(CCO)CC[C@H](CSc1ccccc1)Nc1ccc(S(=O)(=O)NC(=O)c2ccc(N3CCC([C@@H](O)c4ccccc4-c4ccc(Cl)cc4)CC3)cc2)cc1S(=O)(=O)C(F)(F)F [AZD4320] + C[C@@H](Nc1cc(F)cc(F)c1)c1cc(C(=O)N(C)C)cc2c(=O)cc(N3CCOCC3)oc12 [AZD8186] (first compound max 1 µM, 7x7, partner max 3 µM)	0.781	0.892	0.196	0.991	0.325	0.437	0.842	0.659	0.681	0.401	0.939	1	0.0398	-0.0271	0.0202	-0.014	0.0079	0.0227	0.0304	–
CN(CCO)CC[C@H](CSc1ccccc1)Nc1ccc(S(=O)(=O)NC(=O)c2ccc(N3CCC([C@@H](O)c4ccccc4-c4ccc(Cl)cc4)CC3)cc2)cc1S(=O)(=O)C(F)(F)F [AZD4320] + C=CCn1c(=O)c2cnc(Nc3ccc(N4CCN(C)CC4)cc3)nc2n1-c1cccc(C(C)(C)O)n1 [AZD1775] (first compound max 1 µM, partner max 1 µM)	–	0.981	0.667	0.977	0.709	0.531	0.993	0.364	0.491	0.849	0.944	1	0.0572	0.0088	0.0284	0.14	0.0638	-0.0025	-0.035	0.14
CN(CCO)CC[C@H](CSc1ccccc1)Nc1ccc(S(=O)(=O)NC(=O)c2ccc(N3CCC([C@@H](O)c4ccccc4-c4ccc(Cl)cc4)CC3)cc2)cc1S(=O)(=O)C(F)(F)F [AZD4320] + Nc1ccn([C@@H]2O[C@H](CO)[C@@H](O)C2(F)F)c(=O)n1 [Gemcitabine] (first compound max 1 µM, 7x7, partner max 0.3 µM)	–	–	–	–	–	–	–	–	–	–	–	0.934	-0.0482	0.0051	-0.0321	0.0189	0.043	-0.0672	0.0579	0.635
CN(CCO)CC[C@H](CSc1ccccc1)Nc1ccc(S(=O)(=O)NC(=O)c2ccc(N3CCC([C@@H](O)c4ccccc4-c4ccc(Cl)cc4)CC3)cc2)cc1S(=O)(=O)C(F)(F)F [AZD4320] + CC(=O)O[C@H]1C(=O)[C@@]2(C)[C@H]([C@H](OC(=O)c3ccccc3)[C@]3(O)C[C@H](OC(=O)[C@H](O)[C@@H](NC(=O)c4ccccc4)c4ccccc4)C(C)=C1C3(C)C)[C@]1(OC(C)=O)CO[C@@H]1C[C@@H]2O [Paclitaxel] (first compound max 1 µM, 7x7, partner max 3 µM)	–	–	–	–	–	–	–	–	–	–	–	–	-0.0223	0.13	-0.0362	0.132	0.0239	-0.0444	0.277	0.566
N#Cc1cnc(Nc2cc(NC[C@H]3CNCCO3)c(C(F)(F)F)cn2)cn1 [SRA737] + O=c1[nH]cc(F)c(=O)[nH]1 [5-Fluorouracil] (first compound max 10 µM, 7x7, partner max 20 µM)	–	–	–	–	–	–	–	–	–	–	–	0.732	-0.0304	-0.0122	-0.0066	-0.0504	0.0007	-0.112	0.0467	0.323
Cc1nc(Nc2ncc(C(=O)Nc3c(C)cccc3Cl)s2)cc(N2CCN(CCO)CC2)n1 [Dasatinib] + CC(=O)Nc1cccc(-n2c(=O)n(C3CC3)c(=O)c3c(Nc4ccc(I)cc4F)n(C)c(=O)c(C)c32)c1 [Trametinib] (first compound max 2 µM, 7x7, partner max 1 µM)	0.688	0.742	0.306	0.334	0.464	0.414	0.157	0.868	0.846	0.522	0.556	0.169	-0.0483	-0.0024	0.029	-0.0074	-0.0439	-0.0331	-0.0129	–
Cc1cc2ncnn2cc1Nc1ncc2c(n1)n(C1CCOCC1)c(=O)n2C [AZD7648] + COc1cc([C@@H]2c3cc4c(cc3[C@@H](O[C@@H]3O[C@@H]5CO[C@@H](C)O[C@H]5[C@H](O)[C@H]3O)[C@H]3COC(=O)[C@H]23)OCO4)cc(OC)c1O [Etoposide] (first compound max 10 µM, 7x7, partner max 10 µM)	–	–	–	–	–	–	–	–	–	–	–	0.653	0.0532	0.0674	0.085	0.0263	0.12	0.0859	0.0595	0.528
CN(CCO)CC[C@H](CSc1ccccc1)Nc1ccc(S(=O)(=O)NC(=O)c2ccc(N3CCC([C@@H](O)c4ccccc4-c4ccc(Cl)cc4)CC3)cc2)cc1S(=O)(=O)C(F)(F)F [AZD4320] + CCN(CCO)CCCOc1ccc2c(Nc3cc(CC(=O)Nc4cccc(F)c4)[nH]n3)ncnc2c1 [AZD2811] (first compound max 1 µM, 7x7, partner max 1 µM)	0.667	0.801	0.356	0.949	0.112	0.467	0.512	0.752	0.776	0.334	0.781	1	0.0384	0.0018	-0.0048	0.126	-0.0509	0.0052	–	0.12
N#Cc1cnc(Nc2cc(NC[C@H]3CNCCO3)c(C(F)(F)F)cn2)cn1 [SRA737] + Nc1ccn([C@@H]2O[C@H](CO)[C@@H](O)C2(F)F)c(=O)n1 [Gemcitabine] (first compound max 10 µM, 7x7, partner max 0.3 µM)	–	–	–	–	–	–	–	–	–	–	–	–	-0.012	0.0059	0.0099	0.0349	0.0254	-0.0313	0.0472	0.592
COc1nnc2ccc(N3CCC(c4ccc(OCCN5CCN(C)C(=O)[C@H]5C)cc4)CC3)nn12 [AZD5153] + CN(CC[C@H](CSC1=CC=CC=C1)NC2=C(C=C(C=C2)S(=O)(=O)NC(=O)C3=CC=C(C=C3)N4CCC(CC4)[C@H](C5=CC=CC=C5C6=CC=C(C=C6)Cl)O)S(=O)(=O)C(F)(F)F)CCO [AZD4320] (first compound max 1 µM, 7x7, partner max 1 µM)	0.79	0.866	0.598	0.987	0.754	0.328	0.975	0.608	0.846	0.695	0.856	–	–	–	–	–	–	–	–	–
N#Cc1cnc(Nc2cc(NC[C@H]3CNCCO3)c(C(F)(F)F)cn2)cn1 [SRA737] + CCc1c2c(nc3ccc(O)cc13)-c1cc3c(c(=O)n1C2)COC(=O)[C@]3(O)CC [SN-38] (first compound max 10 µM, 7x7, partner max 0.3 µM)	–	–	–	–	–	–	–	–	–	–	–	0.88	-0.0606	0.0137	-0.0496	-0.0597	0.0219	-0.0284	-0.0377	0.475
CC(=O)c1c(C)c2cnc(Nc3ccc(N4CCNCC4)cn3)nc2n(C2CCCC2)c1=O [Palbociclib] + CN(CC[C@H](CSC1=CC=CC=C1)NC2=C(C=C(C=C2)S(=O)(=O)NC(=O)C3=CC=C(C=C3)N4CCC(CC4)[C@H](C5=CC=CC=C5C6=CC=C(C=C6)Cl)O)S(=O)(=O)C(F)(F)F)CCO [AZD4320] (first compound max 10 µM, 7x7, partner max 1 µM)	0.738	0.829	0.336	1	0.0747	0.202	0.917	0.162	0.781	0.303	0.975	–	–	–	–	–	–	–	–	–
N#Cc1cnc(Nc2cc(NC[C@H]3CNCCO3)c(C(F)(F)F)cn2)cn1 [SRA737] + C=CCn1c(=O)c2cnc(Nc3ccc(N4CCN(C)CC4)cc3)nc2n1-c1cccc(C(C)(C)O)n1 [AZD1775] (first compound max 10 µM, partner max 1 µM)	–	–	–	–	–	–	–	–	–	–	–	0.853	0.0391	0.0238	0.097	0.0142	0.156	0.0166	-0.0074	0.511

— the supplement of paper PMC11061612
